Experimental data taken from PubChem BioAssay (NCI).
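Five concentrations, 48 hours, 96-well plates. GI50: concentration for 50% inhibition of growth. The concentration for full growth arrest is given as TGI.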

How the values were obtained:
Test in all cases: inhibition of tumour cell growth, NCI panel, 48 h
786-0 renal = test system: 786-0 renal
A498 renal = test system: A498 renal
CAKI-1 renal = test system: CAKI-1 renal
KM12 colon = test system: KM12 colon
MALME-3M melanoma = test system: MALME-3M melanoma
NCI-H23 lung = test system: NCI-H23 lung
SF-295 CNS = test system: SF-295 CNS
SNB-19 CNS = test system: SNB-19 CNS
SNB-75 CNS = test system: SNB-75 CNS
UACC-62 melanoma = test system: UACC-62 melanoma

Row | Compound | GI50 (786-0 renal) | TGI (786-0 renal) | GI50 (A498 renal) | TGI (A498 renal) | GI50 (CAKI-1 renal) | TGI (CAKI-1 renal) | GI50 (KM12 colon) | TGI (KM12 colon) | GI50 (MALME-3M melanoma) | TGI (MALME-3M melanoma) | GI50 (NCI-H23 lung) | TGI (NCI-H23 lung) | GI50 (SF-295 CNS) | TGI (SF-295 CNS) | GI50 (SNB-19 CNS) | TGI (SNB-19 CNS) | GI50 (SNB-75 CNS) | TGI (SNB-75 CNS) | GI50 (UACC-62 melanoma) | TGI (UACC-62 melanoma)
1 | COc1ccc(C(=O)c2cc3c(N)c(C(=O)Nc4cccc5ccccc45)sc3nc2C)cc1 | 0.305 µM | > 50 µM | 0.119 µM | 0.764 µM | 0.243 µM | > 50 µM | 0.215 µM | > 50 µM | 0.378 µM | > 50 µM | 0.334 µM | > 50 µM | 0.172 µM | > 50 µM | 0.208 µM | > 50 µM | 0.137 µM | > 50 µM | 0.285 µM | > 50 µM
2 | Cc1c2c(nn1C)CSCc1cc(n(C)n1)CSc1cc(c3ccccc3c1)OCCCc1c(C(=O)O)n(C)c3c-2c(Cl)ccc13 | 4.4 µM | 17.8 µM | 4.01 µM | 19 µM | 4.98 µM | 17.4 µM | 3.3 µM | 11.9 µM | 2.84 µM | 9.87 µM | 1.78 µM | 10.6 µM | 2.52 µM | 8.37 µM | 3.56 µM | 13.9 µM | 4.35 µM | 18 µM | 0.456 µM | 2.35 µM
3 | C/C(CC(=O)Nc1ccc(Cl)cc1)=N\NC(N)=S |  | > 100 µM |  | > 100 µM |  |  |  | > 100 µM |  | > 100 µM |  | > 100 µM |  | > 100 µM |  |  |  | > 100 µM |  | > 100 µM
4 | Cc1ccc(N2C(=O)C3C=CC(n4[nH]c(=O)n(Cc5ccccc5)c4=O)CC3C2=O)cc1 (stereo unspecified) |  | > 100 µM |  | > 100 µM |  | > 100 µM |  | > 100 µM |  | > 100 µM |  | > 100 µM |  | > 100 µM |  | > 100 µM |  | > 100 µM |  | > 100 µM
5 | CCOC(=O)NC(=O)c1cn(CCCCCCOC(=O)NCCCCCCNC(=O)OCCCCCCn2cc(C(=O)NC(=O)OCC)c(=O)[nH]c2=O)c(=O)[nH]c1=O |  | > 100 µM |  | > 100 µM |  | > 100 µM |  | > 100 µM |  | > 100 µM |  |  |  | > 100 µM |  | > 100 µM |  | > 100 µM |  | > 100 µM
6 | CCOC(=O)NC(=O)c1cn(CCN2CCN(c3ncnc4nc[nH]c34)CC2)c(=O)[nH]c1=O |  | > 100 µM |  | > 100 µM |  |  |  | > 100 µM |  | > 100 µM |  | > 100 µM |  | > 100 µM |  | > 100 µM |  | > 100 µM |  | > 100 µM
7 | CC1(C)C2C=CC1(C)C1(CC2)OCCO1 (stereo unspecified) |  | > 100 µM |  | > 100 µM |  |  |  | > 100 µM |  | > 100 µM |  | > 100 µM |  | > 100 µM |  | > 100 µM |  | > 100 µM |  | > 100 µM
8 | COc1ccc(C2=NN(c3ccccc3)C[N+](c3ccc(OC)cc3)=N2)cc1 |  | > 100 µM |  | > 100 µM |  |  |  | 54.7 µM |  | 47.1 µM |  | 93.1 µM |  | > 100 µM |  | 92.1 µM |  |  |  | 
9 | C[CH2][Sn]([CH2]C)([O]C(=O)C(OC(C)=O)c1ccccc1)[O]C(=O)C(OC(C)=O)c1ccccc1 (stereo unspecified) | 19.9 µM | 34.8 µM | 19.8 µM | 35.6 µM | 72 µM | > 100 µM | > 100 µM | > 100 µM | 18.4 µM | 33.5 µM | 15.5 µM | 29.8 µM | > 100 µM | > 100 µM | 52 µM | > 100 µM | 31.9 µM | 99.5 µM |  | 
10 | C=C1c2[nH]c3c([N+](=O)[O-])c(OC)ccc3c2CCN1C(C)=O |  | > 100 µM |  | > 100 µM |  | > 100 µM |  | > 100 µM |  |  |  | > 100 µM |  | > 100 µM |  | > 100 µM |  | 42.5 µM |  | > 100 µM
11 | COc1ccc2ccccc2c1C1OC(=O)c2ccccc21 (stereo unspecified) |  | > 100 µM |  | > 100 µM |  | > 100 µM |  | > 100 µM |  | > 100 µM |  | > 100 µM |  | > 100 µM |  | > 100 µM |  |  |  | > 100 µM
12 | COC(=O)C1=C(c2cc(OC)c(OC)c(OC)c2)OC(c2ccc(OC)c(OC)c2)C1 (stereo unspecified) |  | > 100 µM |  | 69.3 µM |  | > 100 µM |  | > 100 µM |  | > 100 µM |  | > 100 µM |  | > 100 µM |  |  |  | > 100 µM |  | > 100 µM
13 | COc1ccc2c(c1)C(=O)c1c-2c(N(C)C)nc2ccccc12 | > 100 µM | > 100 µM | > 100 µM | > 100 µM |  |  | > 100 µM | > 100 µM | > 100 µM | > 100 µM | > 100 µM | > 100 µM |  |  | > 100 µM | > 100 µM | 57.6 µM | > 100 µM | > 100 µM | > 100 µM
14 | COc1ccc(C(C#N)Cc2cc(OC)c(OC)c(OC)c2)cc1 (stereo unspecified) |  | > 100 µM |  | 73.1 µM |  | > 100 µM |  | > 100 µM |  | > 100 µM |  |  |  | 54.4 µM |  | > 100 µM |  |  |  | > 100 µM
